Read-outs that look alike come from different tables or passages of the source.
Columns and labels:
recombinant SjTGR = molecular target: T1, recombinant SjTGR (Schistosoma japonicum, UniProt B5THG7); assay: Inhibition of TrxR activity of recombinant SjTGR (DTNB assay); assay type: biochemical; conditions: 50 nM SjTGR, 1 mM NADPH, 15 min preincubation, DTNB reduction; read-out: IC50 of SjTGR
T1 sequence (B5THG7 1-596): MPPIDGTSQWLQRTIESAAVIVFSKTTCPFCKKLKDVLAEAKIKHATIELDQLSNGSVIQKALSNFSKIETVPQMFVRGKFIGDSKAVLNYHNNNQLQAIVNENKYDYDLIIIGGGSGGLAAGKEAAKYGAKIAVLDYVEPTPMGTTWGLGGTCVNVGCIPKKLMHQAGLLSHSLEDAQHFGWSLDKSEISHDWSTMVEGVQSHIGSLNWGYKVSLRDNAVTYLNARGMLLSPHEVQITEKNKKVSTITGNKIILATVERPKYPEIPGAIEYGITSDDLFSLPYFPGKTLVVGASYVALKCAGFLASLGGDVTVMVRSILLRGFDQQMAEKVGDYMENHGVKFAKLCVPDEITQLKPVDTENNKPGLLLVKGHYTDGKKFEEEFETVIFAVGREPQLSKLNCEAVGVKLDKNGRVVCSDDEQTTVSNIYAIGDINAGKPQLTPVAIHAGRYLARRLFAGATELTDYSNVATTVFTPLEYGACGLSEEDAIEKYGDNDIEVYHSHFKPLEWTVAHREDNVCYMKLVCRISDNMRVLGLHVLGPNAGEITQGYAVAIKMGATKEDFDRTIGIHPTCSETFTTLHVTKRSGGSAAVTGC
Description: The purified recombinant SjTGR proteins were produced according to the method described by Song et al.. The inhibition of TrxR activity by the recombinant SjTGR was performed as reported by Rai et al.. Briefly, 50 nM SjTGR and 1 mM NADPH were incubated with different concentrations of oxadiazole-2-oxides (2, 4, 6, 10, 20 μM) for 15 min at room temperature. Then, potassium phosphate buffer (pH 7.4) containing 10 mM EDTA, 100 μM NADPH, and 3 mM DTNB was added to start the reaction. The increase of absorbance at 412 nm was monitored during the first 2 min. All assays were done in triplicate.
50 nM SjTGR and 1 mM NADPH were incubated with different concentrations of oxadiazole-2-oxides (2, 4, 6, 10, 20 μM) for 15 min at room temperature. Then, potassium phosphate buffer (pH 7.4) containing 10 mM EDTA, 100 μM NADPH, 3 mM DTNB was added to start the reaction. The increase in absorbance at 412 nm was monitored during the first 2 min. All assays were done in triplicate. Results shown are the mean ± SD (n = 3)

juvenile S. japonicum = assay: microbe, parasite or virus in culture; assay type: cell-based; conditions: for killing at 2 µM / killing at 5 µM / killing at 50 µM / Killing activity 24hr / Killing activity 48hr / Killing activity 72hr: juvenile worms; for Killing activity 24hr / Killing activity 48hr / Killing activity 72hr: 10 μM
Description: Infected Oncomelania hupensis, provided by the Department of Snail Biology, Jiangsu Institute of Parasitic Diseases, were incubated at 25–28 °C, under illumination, for 2 h to hatch S. japonicum cercariae. The cercariae were collected from the water surface with clean cover glass and placed into a centrifuge tube using pre cooled RPMI 1640. Centrifugation was performed for 1 min at 1500 rpm, and then the steps above were repeated. After centrifugation, the supernatant solution was removed. The cercariae at the bottom were washed twice and resuspended with RPMI 1640. Approximately 20–30 cercariae (1 mL of the resuspension medium) were added to one well in a 24-well culture plate. They were incubated overnight at 37 °C with 5 % CO2. The survival rates and number of tails shed were observed under an inverted microscope. Cercariae that had shed their tails were used as juvenile S. japonicum.
20–30 juvenile worms were transferred into each well of a 24-well culture plate, containing 2 mL RPMI 1640 medium, 20 mM HEPES, 100 IU/mL penicillin, […] streptomycin and 10 % fetal bovine serum. Then, oxadiazole-2-oxides (2, 5, 10, and 50 μM), diluted with the RPMI 1640 medium, were added to their allocated wells. The worms in the negative control wells were treated with equal volumes of RPMI 1640 or DMSO and worms treated with AS were observed as positive controls. The juvenile worms’ survival rates were observed under an inverted phase contrast microscope (Leica, Wetzlar, Germany) at 24, 48 and 72 h. Parasite death was defined as an unclear internal structure of the juvenile worms, with incomplete tegument and contents overflowing radially, or unclear internal structure with complete tegument, but having no motor activity during 1 min of continuous observation. All assays were repeated three times.
^b Data collected by visual examination of worm movement and shape; % D = The number of worms dead / The total number of worms observed, and worms dead judged by unclear internal structure of juvenile worms with uncompleted tegument, and contents overflowing radially, or unclear internal structure with complete tegument, but having no motor activity during 1 min of continuous observation. The data presented are the average of three independent experiments.

adult S. japonicum = assay: microbe, parasite or virus in culture; assay type: cell-based; conditions: for killing at 100 µM / Killing activity 24hr / Killing activity 48hr / Killing activity 72hr / killing at 25 µM / killing at 50 µM: adult worms
Text: ICR mice (20–22 g), were obtained from the Shanghai Sub-Center of Experimental Animals, Chinese Academy of Sciences. They were maintained at the Department of Experimental Animals, Jiangsu Institute of Parasitic Diseases. To infect each mouse, its abdominal skin was exposed to 50 S. japonica cercariae. All of the mice were executed to collect S. japonica adult worms, through portal vein perfusion, 35 days post-infection. The adult S. japonica collected were washed with RPMI 1640 medium and then kept in RPMI 1640 medium (pH 7.5) with HEPES 20 mM, penicillin (100 IU/mL), streptomycin ([…]) and 10 % fetal bovine serum. Then, two pairs of adult worms were transferred into each well of a 24-well culture plate, with 2 mL of the same medium. The worms were cultured at 37 °C in a humid atmosphere with 5 % CO2.
Adult worms were cultured in a 24-well culture plate for 30–60 min at 37 °C, in a humid atmosphere with 5 % CO2. Then, oxadiazole-2-oxides at different concentrations (10, 25, 50, 100 μM) were added. Equal volumes of RPMI 1640 or DMSO were applied as negative controls, while PZQ was applied as a positive control. The adult worm mobility and parasite survival rates were monitored using an inverted phase contrast microscope, at 24, 48 and 72 h. Parasite death was defined as there being no motor activity during 2 min of continuous observation, and morphological and tegumental alterations. All assays were repeated three times.
^b Data collected by visual examination of worm movement and shape; n.e. […] The data presented are the average of three independent experiments.

[1] = Schistosoma japonicum, 24 h, read-out: Killing activity 24hr
[2] = Schistosoma japonicum, 48 h, read-out: Killing activity 48hr
[3] = Schistosoma japonicum, 72 h, read-out: Killing activity 72hr

For `[O-][n+]1onc(-c2ccc(Br)cc2)c1CO` [Compound 4c], the IC50 (recombinant SjTGR) was 8.6 µM, the mortality at 50 µM (juvenile S. japonicum; Schistosoma japonicum, 24 h, read-out: Mortality of juvenile worms) was < 30% and the killing at 2 µM (juvenile S. japonicum; [1]) was 15%. The killing at 2 µM (juvenile S. japonicum; [2]) was 20%, the killing at 2 µM (juvenile S. japonicum; [3]) was 20% and the killing at 5 µM (juvenile S. japonicum; [1]) was 24.5%. It also gave a killing at 5 µM (juvenile S. japonicum; [2]) of 24.5%, a killing at 5 µM (juvenile S. japonicum; [3]) of 26.4% and a killing at 50 µM (juvenile S. japonicum; [1]) of 25.8%. For the same compound, the killing at 50 µM (juvenile S. japonicum; [2]) was 25.8%, the killing at 50 µM (juvenile S. japonicum; [3]) was 51.6% and the “Killing activity 24hr” value (juvenile S. japonicum; 24 h) was 7.1%D. For the same compound, the “Killing activity 48hr” value (juvenile S. japonicum; 48 h) was 14.3%D, the “Killing activity 72hr” value (juvenile S. japonicum; 72 h) was 17.9%D and the mortality at 100 µM (adult S. japonicum; Schistosoma japonicum, read-out: Mortality of adult worms) was 57.1 ± 2.3%. It also gave a killing at 100 µM (adult S. japonicum; [1]) of 57.1%, a killing at 100 µM (adult S. japonicum; [2]) of 71.4% and a killing at 100 µM (adult S. japonicum; [3]) of 71.4%. For the same compound, the “Killing activity 24hr” value (adult S. japonicum; 10 μM, 24 h) was “n.e”, the “Killing activity 48hr” value (adult S. japonicum; 10 μM, 48 h) was “n.e” and the “Killing activity 72hr” value (adult S. japonicum; 10 μM, 72 h) was “n.e”. For the same compound, the “Killing activity 24hr” value (adult S. japonicum; 25 μM, 24 h) was “n.e”, the “Killing activity 48hr” value (adult S. japonicum; 25 μM, 48 h) was “n.e” and the “Killing activity 72hr” value (adult S. japonicum; 25 μM, 72 h) was “n.e”. The “Killing activity 24hr” value (adult S. japonicum; 50 μM, 24 h) was “n.e”, the “Killing activity 48hr” value (adult S. japonicum; 50 μM, 48 h) was “n.e” and the “Killing activity 72hr” value (adult S. japonicum; 50 μM, 72 h) was “n.e”.

In the case of `N#Cc1c(-c2ccc(OCCCCBr)cc2)no[n+]1[O-]` [Compound 14], the IC50 (recombinant SjTGR) is reported as 15.5 µM, the killing at 2 µM (juvenile S. japonicum; [1]) is reported as 21.6% and the killing at 2 µM (juvenile S. japonicum; [2]) is reported as 31.1%. For the same compound, the killing at 2 µM (juvenile S. japonicum; [3]) was 35.1%, the killing at 5 µM (juvenile S. japonicum; [1]) was 26.4% and the killing at 5 µM (juvenile S. japonicum; [2]) was 33.3%. The killing at 5 µM (juvenile S. japonicum; [3]) was 38.9%, the killing at 50 µM (juvenile S. japonicum; [1]) was 46.4% and the killing at 50 µM (juvenile S. japonicum; [2]) was 66.4%. The killing at 50 µM (juvenile S. japonicum; [3]) was 80%, the “Killing activity 24hr” value (juvenile S. japonicum; 24 h) was 30.4%D and the “Killing activity 48hr” value (juvenile S. japonicum; 48 h) was 69.6%D. For the same compound, the “Killing activity 72hr” value (juvenile S. japonicum; 72 h) was 69.6%D, the mortality at 25 µM (adult S. japonicum; Schistosoma japonicum, 24 h, read-out: Mortality of adult worms) was > 75% and the killing at 25 µM (adult S. japonicum; Schistosoma japonicum, 25 μM, 24 h, read-out: Killing activity 24hr) was 75%. It also gave a killing at 25 µM (adult S. japonicum; Schistosoma japonicum, 25 μM, 48 h, read-out: Killing activity 48hr) of 87.5%, a killing at 25 µM (adult S. japonicum; Schistosoma japonicum, 25 μM, 72 h, read-out: Killing activity 72hr) of 100% and a killing at 50 µM (adult S. japonicum; Schistosoma japonicum, 50 μM, 24 h, read-out: Killing activity 24hr) of 100%. For the same compound, the killing at 50 µM (adult S. japonicum; Schistosoma japonicum, 50 μM, 48 h, read-out: Killing activity 48hr) was 100%, the killing at 50 µM (adult S. japonicum; Schistosoma japonicum, 50 μM, 72 h, read-out: Killing activity 72hr) was 100% and the killing at 100 µM (adult S. japonicum; [1]) was 100%. The killing at 100 µM (adult S. japonicum; [2]) was 100%, the killing at 100 µM (adult S. japonicum; [3]) was 100% and the “Killing activity 24hr” value (adult S. japonicum; 10 μM, 24 h) was 33.3%D. The “Killing activity 48hr” value (adult S. japonicum; 10 μM, 48 h) was 44.4%D and the “Killing activity 72hr” value (adult S. japonicum; 10 μM, 72 h) was 77.8%D.
